Read-outs that look alike come from different tables or passages of the source.
Columns and labels:
[1] = Hydrolysis in Simulated Gastric Fluid (SGF) at 37° C., LC/MS; conditions: for Hydrolysis in SGF: hydrolyzed in 6.75 hours; for Hydrocodone in hydrolysis mixture: from hydrocodone 2,4-pentanediol ketal isomers, 1 mg/ml; for Hydrocodone in hydrolysis mixture / Oxycodone, Ketal A-D in hydrolysis mixture: SGF 37° C.; for Oxycodone, Ketal A-D in hydrolysis mixture: oxycodone 2,4-pentanediol ketal isomers + unreacted oxycodone, 2 mg/nil
[2] = type: physicochemical; conditions: for % hydrocodone, % Ketal in hydrolysis mixture: hydrocodone 1,3-propanediol ketal; for % hydrocodone, % Ketal in hydrolysis mixture / Hydrocodone, 2R,5R ketal in hydrolysis mixture / Hydrocodone, 2S,5S ketal in hydrolysis mixture / % Oxycodone, % IVD in hydrolysis mixture: 1 mg/ml; for % hydrocodone, % Ketal in hydrolysis mixture / Hydrocodone, 2R,5R ketal in hydrolysis mixture / Hydrocodone, 2S,5S ketal in hydrolysis mixture / % Oxycodone, % IVA-IVD in hydrolysis mixture / % Oxycodone, % IVD in hydrolysis mixture: 0.1 N HCl 37° C.; for Hydrocodone, 2R,5R ketal in hydrolysis mixture: hydrocodone 2R,5R-hexanediol ketal tested separately; for Hydrocodone, 2S,5S ketal in hydrolysis mixture: hydrocodone 2S,5S-hexanediol ketal tested separately; for % Oxycodone, % IVA-IVD in hydrolysis mixture: total 1 mg/ml; for % Oxycodone, % IVD in hydrolysis mixture: isomer IVD tested separately, normalized
[3] = unreacted oxycodone + four isomers of Formula IV, 1 mg/ml, 5% acetic acid 100° C.
[4] = Ketal hydrolysis at varying pH, buffers at 37° C.; conditions: 1 mg/ml; for hydrolysis of the ketal: Table 13b, 37° C.

In the case of `COc1ccc2c3c1OC1C4(CCC5[C@@H](C2)N(C)CC[C@@]351)OCCO4` (stereo partly drawn), the “Hydrolysis in SGF” value [1] is reported as ~2% hydrolyzed in 6.75 hours.
With `COc1ccc2c3c1O[C@H]1C(=O)CC[C@H]4[C@@H](C2)N(C)CC[C@]314` [Hydrocodone, hydrocodone, reference compound] the “% hydrocodone, % Ketal in hydrolysis mixture” value (shortened to “% hydrocodone, % Ketal”) ([2]; 0 h) was 6.9%, the “% hydrocodone, % Ketal” value ([2]; 0.57 h) was 34.3% and the “% hydrocodone, % Ketal” value ([2]; 1.25 h) was 47.7%. For the same molecule, the “% hydrocodone, % Ketal” value ([2]; 2 h) was 58.2%, the “% hydrocodone, % Ketal” value ([2]; 3 h) was 67.8% and the “% hydrocodone, % Ketal” value ([2]; 4 h) was 74.4%. For the same molecule, the “Hydrocodone, 2R,5R ketal in hydrolysis mixture” value (shortened to “Hydrocodone, 2R,5R ketal”) ([2]; 0 h) was 26.1, the “Hydrocodone, 2R,5R ketal” value ([2]; 0.5 h) was 65.4 and the “Hydrocodone, 2R,5R ketal” value ([2]; 1.25 h) was 88.6. For the same molecule, the “Hydrocodone, 2R,5R ketal” value ([2]; 2 h) was 97.3, the “Hydrocodone, 2R,5R ketal” value ([2]; 3 h) was 100 and the “Hydrocodone, 2R,5R ketal” value ([2]; 4 h) was 100. The “Hydrocodone, 2S,5S ketal in hydrolysis mixture” value (“Hydrocodone, 2S,5S ketal” for short) ([2]; 0 h) was 18.02, the “Hydrocodone, 2S,5S ketal” value ([2]; 0.5 h) was 47.82 and the “Hydrocodone, 2S,5S ketal” value ([2]; 1.25 h) was 64.89. The “Hydrocodone, 2S,5S ketal” value ([2]; 2 h) was 89.81, the “Hydrocodone, 2S,5S ketal” value ([2]; 3 h) was 95.71 and the “Hydrocodone, 2S,5S ketal” value ([2]; 4 h) was 98. The “Hydrocodone in hydrolysis mixture” value ([1]; 0 h) was 1, the “Hydrocodone in hydrolysis mixture” value ([1]; 0.58 h) was 33.7 and the “Hydrocodone in hydrolysis mixture” value ([1]; 1.25 h) was 45.9. The “Hydrocodone in hydrolysis mixture” value ([1]; 2 h) was 48.1, the “Hydrocodone in hydrolysis mixture” value ([1]; 3 h) was 55.1 and the “Hydrocodone in hydrolysis mixture” value ([1]; 4 h) was 58.3.
In the case of `COc1ccc2c3c1OC1C4(CCC5(O)[C@@H](C2)N(C)CC[C@]315)OCC(C)O4` (stereo partly drawn), the “Hydrolysis in SGF” value [1] is reported as “Trace hydrolysis in 6.75 hours”.
For `COc1ccc2c3c1O[C@H]1[C@]4(CCC5(O)[C@@H](C2)N(C)CC[C@]315)O[C@H](C)C[C@H](C)O4` (stereo partly drawn) [IVA, oxycodone 2R,4S-pentanediol ketal], the “% Oxycodone, % IVA-IVD in hydrolysis mixture” value (“% Oxycodone, % IVA-IVD” below) ([2]; 0 h) was 24.7%, the “% Oxycodone, % IVA-IVD” value ([2]; 0.583 h) was 25.9% and the “% Oxycodone, % IVA-IVD” value ([2]; 1.167 h) was 25.6%. The “% Oxycodone, % IVA-IVD” value ([2]; 1.75 h) was 25%, the “% Oxycodone, % IVA-IVD” value ([2]; 2.33 h) was 25.9% and the “% Oxycodone, % IVA-IVD” value ([2]; 2.92 h) was 24.8%. For the same molecule, the “% Oxycodone, % IVA-IVD” value ([2]; 4 h) was 23.7%, the “% Oxycodone, % IVA-IVD” value ([2]; 6.5 h) was 19.8% and the “% Oxycodone, % IVA-IVD” value ([2]; 9.75 h) was 15.6%. The “% Oxycodone, % IVA-IVD” value ([2]; 13.75 h) was 9.9%, the “% Oxycodone, % IVA-IVD” value ([2]; 25 h) was 4.3% and the “% Oxycodone, % IVA-IVD” value ([3]; 0 h) was 24%. The “% Oxycodone, % IVA-IVD” value ([3]; 0.5 h) was 21.1%, the “% Oxycodone, % IVA-IVD” value ([3]; 1 h) was 15.8% and the “% Oxycodone, % IVA-IVD” value ([3]; 2 h) was 6%. For the same molecule, the “% Oxycodone, % IVA-IVD” value ([3]; 4.35 h) was 3.1% and the “% Oxycodone, % IVA-IVD” value ([3]; 10 h) was 0%.
With `COc1ccc2c3c1O[C@H]1C4(CCC5(O)[C@@H](C2)N(C)CC[C@]315)O[C@H](C)C[C@@H](C)O4` (stereo partly drawn) [IVD, oxycodone 2R,4R-pentanediol ketal] the “time to almost complete hydrolysis” value ([2]; 0.1N HCl 37° C., FIG. 10) was ≤ 2 h, the “% Oxycodone, % IVA-IVD” value ([2]; 0 h) was 17.3% and the “% Oxycodone, % IVA-IVD” value ([2]; 0.583 h) was 8.6%. The “% Oxycodone, % IVA-IVD” value ([2]; 1.167 h) was 4.8%, the “% Oxycodone, % IVA-IVD” value ([2]; 1.75 h) was 2.6% and the “% Oxycodone, % IVA-IVD” value ([2]; 2.33 h) was 1.5%. For the same molecule, the “% Oxycodone, % IVA-IVD” value ([2]; 2.92 h) was 0.7%, the “% Oxycodone, % IVA-IVD” value ([2]; 4 h) was 0% and the “% Oxycodone, % IVA-IVD” value ([2]; 6.5 h) was 0%. For the same molecule, the “% Oxycodone, % IVA-IVD” value ([2]; 9.75 h) was 0%, the “% Oxycodone, % IVA-IVD” value ([2]; 13.75 h) was 0% and the “% Oxycodone, % IVA-IVD” value ([2]; 25 h) was 0%. For the same molecule, the “relative rate of hydrolysis” value ([2]; comparison of stereoisomers) was “hydrolyzes relatively quickly”, the “% Oxycodone, % IVD in hydrolysis mixture” value ([2]; 0 h) was 99.8% and the “% Oxycodone, % IVD in hydrolysis mixture” value ([2]; 0.17 h) was 70%. For the same molecule, the “% Oxycodone, % IVD in hydrolysis mixture” value ([2]; 0.33 h) was 44.8%, the “% Oxycodone, % IVD in hydrolysis mixture” value ([2]; 1 h) was 10.8% and the “% Oxycodone, % IVD in hydrolysis mixture” value ([2]; 2 h) was 2%. For the same molecule, the “% Oxycodone, % IVA-IVD” value ([3]; 0 h) was 17.6%, the “% Oxycodone, % IVA-IVD” value ([3]; 0.5 h) was 1.5% and the “% Oxycodone, % IVA-IVD” value ([3]; 1 h) was 0%. For the same molecule, the “% Oxycodone, % IVA-IVD” value ([3]; 2 h) was 0%, the “% Oxycodone, % IVA-IVD” value ([3]; 4.35 h) was 0% and the “% Oxycodone, % IVA-IVD” value ([3]; 10 h) was 0%. The “hydrolysis of the ketal” value ([4]; pH 1, 0 h) was 0, the “hydrolysis of the ketal” value ([4]; pH 1, 0.33 h) was 55.2 and the “hydrolysis of the ketal” value ([4]; pH 1, 1 h) was 89.2. The “hydrolysis of the ketal” value ([4]; pH 1, 2 h) was 98, the “hydrolysis of the ketal” value ([4]; pH 1, 4 h) was 100 and the “hydrolysis of the ketal” value ([4]; pH 1.5, 0 h) was 0. The “hydrolysis of the ketal” value ([4]; pH 1.5, 0.33 h) was 14.9, the “hydrolysis of the ketal” value ([4]; pH 1.5, 1 h) was 34.4 and the “hydrolysis of the ketal” value ([4]; pH 1.5, 2 h) was 51.9. The “hydrolysis of the ketal” value ([4]; pH 1.5, 4 h) was 80.4, the “hydrolysis of the ketal” value ([4]; pH 2, 0 h) was 0 and the “hydrolysis of the ketal” value ([4]; pH 2, 0.33 h) was 4.6. For the same molecule, the “hydrolysis of the ketal” value ([4]; pH 2, 1 h) was 13.3, the “hydrolysis of the ketal” value ([4]; pH 2, 2 h) was 24.2 and the “hydrolysis of the ketal” value ([4]; pH 2, 4 h) was 40.9. The “hydrolysis of the ketal” value ([4]; pH 2.5, 0 h) was 0, the “hydrolysis of the ketal” value ([4]; pH 2.5, 0.33 h) was 0 and the “hydrolysis of the ketal” value ([4]; pH 2.5, 1 h) was 0. For the same molecule, the “hydrolysis of the ketal” value ([4]; pH 2.5, 2 h) was 8.4, the “hydrolysis of the ketal” value ([4]; pH 2.5, 4 h) was 14.7 and the “hydrolysis of the ketal” value ([4]; pH 3, 0 h) was 0. For the same molecule, the “hydrolysis of the ketal” value ([4]; pH 3, 0.33 h) was 0, the “hydrolysis of the ketal” value ([4]; pH 3, 1 h) was 0 and the “hydrolysis of the ketal” value ([4]; pH 3, 2 h) was 3.4. For the same molecule, the “hydrolysis of the ketal” value ([4]; pH 3, 4 h) was 6.4 and the “pH at which hydrolysis of the ketal is fastest” value ([4]; pH buffers 37° C.) was “fastest at pH 1”.
With `COc1ccc2c3c1OC1C4(CCC5(O)C(C2)N(C)CCC315)OC(C)CC(C)O4` (stereo not drawn) [IVB, oxycodone 2S,4R-pentanediol ketal] the “Oxycodone, Ketal A-D in hydrolysis mixture” value (“Oxycodone, Ketal A-D” for short) ([1]; 0 h) was 10.3, the “Oxycodone, Ketal A-D” value ([1]; 0.58 h) was 9.8 and the “Oxycodone, Ketal A-D” value ([1]; 1.25 h) was 10.4. The “Oxycodone, Ketal A-D” value ([1]; 2 h) was 9.7, the “Oxycodone, Ketal A-D” value ([1]; 3 h) was 10.2 and the “Oxycodone, Ketal A-D” value ([1]; 4 h) was 9.1.
